Like-named read-outs stand apart in the source and are kept apart here.
What was measured:
Format in all cases: cell-based
[1] = system: Wnt/Beta-Catenin pathway (LEF-TCF-bla SW480 cells); experiment: Wnt/Beta-Catenin (APC-/-) LEF-TCF-bla SW480 inhibitor screen, constitutively activated; conditions: for IC50: read-out: TCF/LEF receptor gene activity IC50; for inhibition at 10 µM: read-out: TCF/LEF receptor gene activity [% inhibition at 10 μM]
Description: (§1) 3. Assays for the Wnt-Pathway
(§2) For determining the activity of the test compounds on the Wnt-pathway each substances war subjected to two distinct assays: The first (Wnt/Beta-Catenin) assay screened for inhibitors of the Wnt-pathway while the second (MAPK/MEK/B-raf) was conducted in order to confirm that the test compounds modulate the β-catenin-dependent, canonical Wnt pathway and are not acting via a possibly competing β-catenin-independent, noncanonical Wnt messaging system.
(§3) Both assays were performed and analyzed with a Tecan Safire^2 fluorescence plate reader.
Wnt/Beta-Catenin (APC−/−)—LEF-TCF-bla SW480—Inhibitor Screen, Constitutively Activated
(§4) LEF-TCF-bla SW480 cells are thawed and resuspended in Assay Media (OPTI-MEM, 0.5% dialyzed FBS, 0.1 mM NEAA, 1 mM Sodium Pyruvate, 100 U/mL/100 μg/mL Pen/Strep) to a concentration of 312,500 cells/mL. 4 μL of a 10× serial dilution of ICG-001 (control inhibitor starting concentration, 10,000 nM) or compounds are added to appropriate wells of a TC-Treated assay plate. 32 μL of cell suspension (10,000 cells) is added to the wells. 4 μL of Assay Media is added to all wells to bring the final assay volume to 40 μL. The plate is incubated for 16-24 hours at 37° C./5% CO2 in a humidified incubator. 8 μL of 1 μM Substrate Loading Solution is added to each well and the plate is incubated for 2 hours at room temperature.

[2] = system: MAPK/MEK/B-raf pathway (AP1-bla A375 cells); experiment: MAPK/MEK/B-raf AP1-bla A375 inhibitor screen, constitutively activated (negative control of the Wnt assay)
Description: as §1, §2, §3
MAPK/MEK/B-raf—APl-bla A375—Inhibitor Screen, Constitutively Activated
as §4, with “AP1-bla A375” for “LEF-TCF-bla SW480”, “Raf1 Kinase Inhibitor” for “ICG-001”

Purinoreceptor P2Y1 = molecular target: T1, Purinoreceptor P2Y1 (Homo sapiens, UniProt P47900); experiment: Ca2+ assay (FLIPR) for the GPCR purinoreceptor P2Y1, agonist and antagonist mode; conditions: P2Y1 receptor, 10 μM
T1 construct: host or cells: Ca2+ optimized hematopoietic cell lines (rat)
Description: Biological and Pharmacological Methods 1. Ca^2+ Assays for the GPCRs Motilin Receptor, Prostaglandin F (FP) Receptor, 5-hydroxytryptamine 2B (5-HT2B) Receptor, and Purinoreceptor P2Y1
Assays were performed using on a FLIPR^TETRA fluorometric imaging plate reader (Molecular Devices) with ScreenWorks Version 2 (Molecular Devices) as device operating and data analysis software.
Dose dependent agonist and antagonist activities were determined. Percentage activation and percentage inhibition values were determined.
Percentage activation was determined upon initial addition of the sample compounds followed by 10 minutes incubation at 25° C. Following compound incubation, reference agonists were added at EC80 to determine percentage inhibition.
Reference agonists were purchased from reputable commercial vendors and prepared according to each ligand's specifications. All handling of ligands were done to ensure proper control throughout the experiments.
Example compounds were weighed on a Microbalance (Mettler MX5) and dissolved in 100% DMSO to a final concentration of 2.5 mM and subsequently diluted into the assay buffer.
The Assay buffer was a supplemented HBSS (Hank's Balanced Salt Solution). HBSS was supplemented with 20 mM HEPES (4-(2-hydroxyethyl)-piperazin-1-ethansulfonic acid) and 2.5 mM Probenecid (Sigma P8761).
GPCR assays were performed using Ca^2+ optimized hematopoietic cell lines (rat) with cultures never exceeding 90% confluency. Cells were harvested and seeded (from cultures at less than 90% confluency) at 50000 cells/well for a 96-well plate (12500 cells/well for 384). After seeding, the assay plates were incubated for forty-five (45) minutes at room temperature. After room temperature incubation, the assay plates were incubated at 37° C. 5% CO2 for 24 hours prior to assaying.
All GPCR assays were performed using Fluo-8 Ca^2+ dye. Ca^2+ dye was prepared at 1× dye concentration in GPCR assay buffer. After 24 hours of incubation, cells were washed with GPCR assay buffer, and then Ca^2+-dye (100 μL/well) was added.
The plates were incubated for 90 minutes at 30° C. 5% CO2 prior to FLIPR assay.
Compound plates were prepared to add 50 μL/well during the agonist assay mode. During the FLIPR assay, 50 μL/well from the compound plate was diluted 3-fold into the existing 100 μL/well from the dye loading step. Therefore all compounds were prepared as 3× the final concentration desired in the assay.
After completion of the first single addition assay run, assay plate was removed from the FLIPR Tetra and placed at 25° C. for seven (7) minutes before antagonist assay.
Using the EC80 values determined during the agonist assay, all pre-incubated sample compound and reference antagonist (if applicable) wells were stimulated at the EC80 of the reference agonist. As reference ligands for the first three assays their obvious natural ligands motilin, prostaglandin F2α, and serotonin (5-HT, 5-Hydroxytryptamine) were used; and for the P2Y1 assay 2MeSATP (2-methyl-thio-adeno-sine 5′-triphosphate, i.e. (2R,3S,4R)-5-(6-amino-2-methylsulfanyl-purin-9-yl)-3,4-dihydroxy-tetrahydrofuran-2-yl]methyl (hydroxy-phosphonooxy-phosphoryl)hydrogen phosphate) was applied.
After the addition of the reference agonist fluorescence was monitored for 180 sec using FLIPR Tetra.
Data Analysis and Results:
From the FLIPR data, with negative control correction enabled, the maximum statistic for each well was exported and percentage activation relative to Emax control was calculated.

[3] = Homo sapiens, A-375, read-out: AP receptor gene activity IC50

T1 sequence (P47900 whole entry): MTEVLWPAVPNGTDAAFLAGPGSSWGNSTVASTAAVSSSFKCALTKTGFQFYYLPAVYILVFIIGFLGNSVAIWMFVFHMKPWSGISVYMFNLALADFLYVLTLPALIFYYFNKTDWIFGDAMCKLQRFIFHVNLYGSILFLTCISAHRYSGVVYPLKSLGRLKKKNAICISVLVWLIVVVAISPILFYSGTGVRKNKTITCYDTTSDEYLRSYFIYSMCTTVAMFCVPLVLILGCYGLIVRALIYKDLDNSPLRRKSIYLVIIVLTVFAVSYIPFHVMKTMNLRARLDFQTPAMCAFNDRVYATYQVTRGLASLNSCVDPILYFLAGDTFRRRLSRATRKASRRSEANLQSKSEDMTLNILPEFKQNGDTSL

## CN1CC(=O)N2C[C@@H](NC(=O)c3cccc4ccccc34)C[C@H]2COc2ccc(F)cc2C(=O)N(C)[C@H](C(=O)NCc2ccc3ccccc3c2)CCC1=O [Ex. 503, (2S,11S,19aS)-15-fluoro-7,12-dimethyl-2-(1-naphthoylamino)-N-(2-naphthylmethyl)-5,8,13-trioxo-2,3,6,7,8,9,10,11,12,13,19,19a-dodecahydro-1H,5H-pyrrolo[2,1-c] [1,4,7,12]benzoxatriazacyclopentadecine-11-carboxamide]
[1]; Homo sapiens, SW480
  IC50: 5.8 µM
  inhibition at 10 µM: 68%
[2]; [3]
  IC50: > 50 µM

## CN1CC(=O)N2C[C@H](NC(=O)OC(C)(C)C)C[C@H]2CSc2cccc(c2)C(=O)N(C)[C@H](C(=O)NCc2ccc3ccccc3c2)CCC1=O [Ex. 316, tert-butyl N-[(4S,6R,15S)-11,16-dimethyl-15-{[(2-naphthylmethyl)amino]carbonyl}-9,12,17-trioxo-2-thia-8,11,16-triazatricyclo[16.3.1.0^4,8]docosa-1(22),18,20-trien-6-yl]carbamate]
Purinoreceptor P2Y1
  inhibition at 10 µM: 57%

## CN1CC(=O)N2C[C@@H](NC(=O)c3cccc(Cl)c3)C[C@H]2COc2ccc(F)cc2C(=O)N(C)[C@H](C(=O)NCc2cccc3ccccc23)CCC1=O [Ex. 502, (2S,11S,19aS)-2-[(3-chlorobenzoyl)amino]-15-fluoro-7,12-dimethyl-N-(1-naphthylmethyl)-5,8,13-trioxo-2,3,6,7,8,9,10,11,12,13,19,19a-dodecahydro-1H,5H-pyrrolo[2,1-c] [1,4,7,12] benzoxatriazacyclopentadecine-11-carboxamide]
[1]; Homo sapiens, SW480
  IC50: 5.5 µM
  inhibition at 10 µM: 82%
[2]; [3]
  IC50: > 50 µM

## CCCCC(=O)N[C@@H]1C[C@H]2CSc3cccc(c3)C(=O)N(C)[C@H](C(=O)NCc3ccc4ccccc4c3)CCC(=O)N(C)CC(=O)N2C1 [Ex. 322, (4S,6R,15S)-11,16-dimethyl-N-(2-naphthylmethyl)-9,12,17-trioxo-6-(pentanoylamino)-2-thia-8,11,16-triazatricyclo[16.3.1.0^4,8]docosa-1(22),18,20-triene-15-carboxamide]
Purinoreceptor P2Y1
  inhibition at 10 µM: 60%

## CN1CC(=O)N2C[C@@H](NC(=O)Cc3ccc4ccccc4c3)C[C@H]2COc2ccc(F)cc2C(=O)N(C)[C@H](C(=O)NCc2cccc3ccccc23)CCC1=O [Ex. 501, (2S,11S,19aS)-15-fluoro-7,12-dimethyl-2-{[2-(2-naphthyl)acetyl]amino}-N-(1-naphthylmethyl)-5,8,13-trioxo-2,3,6,7,8,9, 10,11,12,13,19,19a-dodecahydro-1H,5H-pyrrolo[2,1-c] [1,4,7,12]benzoxatriazacyclo-pentadecine-11-carboxamide]
[1]; 10 μM
  TCF/LEF receptor gene activity [% inhibition at 10 μM]: 100%
[1]
  IC50: 1.1 µM
[2]; read-out: AP receptor gene activity IC50
  IC50: > 50 µM

## CC(=O)N[C@@H]1C[C@H]2CSc3cccc(c3)C(=O)N(C)[C@H](C(=O)NCc3ccc4ccccc4c3)CCC(=O)N(C)CC(=O)N2C1 [Ex. 320, (4S,6R,15S)-6-(acetylamino)-11,16-dimethyl-N-(2-naphthylmethyl)-9,12,17-trioxo-2-thia-8,11,16-triazatricyclo[16.3.1.0^4,8]docosa-1(22),18,20-triene-15-carboxamide]
Purinoreceptor P2Y1
  inhibition at 10 µM: 19%
